Assays:
[1] = tested on: lung cancer and lymphoma; settings: models of lung cancer and lymphoma; cited from earlier work
[2] = tested on: M6PR; assay: M6PR expression by flow cytometry in different melanoma cell lines treated with dabrafenib; type: cell-based, human; settings: 16 hr, 1 μM or 5 μM
Protocol: FIGS. 4A and 4B show WM35 cells resistant to PLX4720. […] Cell viability was measured in experimental replicates in MTT test after 2 and 4 days of treatment. Mean and SD are shown. FIG. 4B show the effect of Dabrafenib on the expression of M6PR. Indicated cells were treated with dabrafenib for 16 hr (1 μM or 5 μM) and M6PR expression was evaluated by flow cytometry. Mean and SD are shown. P values were calculated using two-sided Student's t-test; *-p<0.05; ** p<0.01; ***-p<0.001; ****-p<0.0001 from DMSO treated controls.
M6PR expression levels were detected by flow cytometry. Cells were incubated with Aqua dead cell staining kit (Thermo Fischer Scientific; Cat. no. L34957) for 15 min at 4° C., followed by staining with Alexa Fluor 647-conjugated mouse antibody specific for human IGF2R/M6PR (BD Biosciences; Cat. no. 565105; clone no. MEM-238) or its isotype (BD Biosciences; Cat. no. 557732; clone no. MOPC-21) at 4° C. for 20 minutes. Cells were fixed using 1% paraformaldehyde for 20 minutes at 4° C. before running them on LSR14. Data was analyzed by FlowJo software (Tree Star).

[3] = tested on: BRAFV600E mutant melanoma; settings: patients with BRAFV600E mutant melanoma; cited from earlier work

Row | SMILES | effect on anti-tumor effect of immunotherapy [1] | expression of M6PR [2] | clinical responses [3]
1 | CC(=O)O[C@H]1C(=O)[C@@]2(C)[C@H]([C@H](OC(=O)c3ccccc3)[C@]3(O)C[C@H](OC(=O)[C@H](O)[C@@H](NC(=O)c4ccccc4)c4ccccc4)C(C)=C1C3(C)C)[C@]1(OC(C)=O)CO[C@@H]1C[C@@H]2O [paclitaxel] | potentiate the anti-tumor effect of immunotherapy via up-regulation of M6PR on the tumor cell surface |  | 
2 | COc1cccc2c1C(=O)c1c(O)c3c(c(O)c1C2=O)C[C@@](O)(C(=O)CO)C[C@@H]3O[C@H]1C[C@H](N)[C@H](O)[C@H](C)O1 [doxorubicin] | potentiate the anti-tumor effect of immunotherapy via up-regulation of M6PR on the tumor cell surface |  | 
3 | N.N.[Cl][Pt][Cl] [cisplatin] | potentiate the anti-tumor effect of immunotherapy via up-regulation of M6PR on the tumor cell surface |  | 
4 | CC(C)(C)c1nc(-c2cccc(NS(=O)(=O)c3c(F)cccc3F)c2F)c(-c2ccnc(N)n2)s1 [dabrafenib] |  | substantial up-regulation of the receptor | impressive clinical responses
